Data set [1] deals with T1, Purine nucleoside phosphorylase (Homo sapiens, UniProt P00491).
T1 sequence (P00491 whole entry): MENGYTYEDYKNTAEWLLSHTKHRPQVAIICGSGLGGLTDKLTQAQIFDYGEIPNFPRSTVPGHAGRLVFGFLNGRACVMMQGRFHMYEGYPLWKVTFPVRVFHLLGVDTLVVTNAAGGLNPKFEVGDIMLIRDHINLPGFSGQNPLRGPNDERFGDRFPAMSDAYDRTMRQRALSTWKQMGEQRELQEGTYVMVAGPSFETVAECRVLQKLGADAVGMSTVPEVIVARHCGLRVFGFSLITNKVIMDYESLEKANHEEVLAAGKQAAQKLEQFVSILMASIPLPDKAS
Put plainly: Inhibition of human purine nucleoside phosphorylase by xanthine-oxidase coupled assay.

Data set [2] concerns the target T2, Purine nucleoside phosphorylase (Plasmodium falciparum, UniProt Q8T9Z7).
T2 sequence (Q8T9Z7 whole entry): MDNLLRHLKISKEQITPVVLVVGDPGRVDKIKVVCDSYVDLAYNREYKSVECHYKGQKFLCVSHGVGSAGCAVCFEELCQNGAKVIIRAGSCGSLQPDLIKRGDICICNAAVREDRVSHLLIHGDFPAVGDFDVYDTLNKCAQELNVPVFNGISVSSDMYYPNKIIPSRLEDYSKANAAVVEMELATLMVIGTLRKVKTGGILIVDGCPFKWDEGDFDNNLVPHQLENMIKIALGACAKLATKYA
Description: Inhibition of Plasmodium falciparum purine nucleoside phosphorylase by xanthine-oxidase coupled assay.

Data set [3] addresses T2, Purine nucleoside phosphorylase. Description: Inhibition of Plasmodium falciparum purine nucleoside phosphorylase assessed as slow onset inhibition constant by xanthine-oxidase coupled assay.
For a further data set, the species on record is Mus musculus. Description: animal or person. As to conditions: Blood, po, read-out: INH.
Data set [4] can be described thus: in vivo. To be noted: mouse, ip, 14 nmol.
Description: Half life in mouse at 14 nmol, ip administered as single dose
Data set [5] in a line: in vivo. To be noted: mouse, po, 14 nmol.
Description: Half life in mouse at 14 nmol, po administered as single dose
Data set [6] addresses T1, Purine nucleoside phosphorylase. Put plainly: Inhibition of human purine nucleoside phosphorylase assessed as slow onset inhibition constant by xanthine-oxidase coupled assay.

Where only a bound is given, the exact number is not on record here.

Description for Mus musculus: Inhibition of purine nucleoside phosphorylase in mouse blood at 0.2 mg/kg, po administered as single dose

For `O=c1[nH]cnc2c(CN3C[C@@H](CO)[C@H](O)C3)c[nH]c12`, the inhibition constant Ki in data set [1] is 0.38 nM; in data set [2], 80 nM; in data set [3] it was 1700 nM.
Consider `O=c1[nH]cnc2c(CN3C[C@H](O)[C@@](F)(CO)C3)c[nH]c12`, for which the results for the Ki in data set [1], in data set [2] and in data set [3] were 0.33 nM, 2.63 nM and 19 nM, respectively. The inhibition in vivo at 0.2 mg/kg in the data set filed under Mus musculus was determined as 80%. The half-life in “in vivo [4]” was under 0.25 h; in the data set “in vivo [5]” it was 20 h. Moreover, the Ki* in data set [6] worked out at 0.032 nM.
Take `O=c1[nH]cnc2c(CN3C[C@@H](O)[C@](F)(CO)C3)c[nH]c12`: the inhibition constant (Ki) in data set [1] is 18 nM; in data set [2], 260 nM; in data set [3], 2070 nM. In addition, the Ki* in data set [6] was determined as 1.82 nM.
In the case of `O=c1[nH]cnc2c(CN3C[C@H](O)[C@@](F)(CO)C3)c[nH]c12` (racemic), the inhibitory constant (Ki) in data set [2] turned out to be 3.6 nM; in data set [3] it was 23.3 nM.

Values taken from ChEMBL document CHEMBL1140139, “A beta-fluoroamine inhibitor of purine nucleoside phosphorylase” (J Med Chem, 2008).
